Results: paper PMC11257449 (bioRxiv, 2024)

Molecular target: AmpC β-lactamase (Escherichia coli, UniProt P00811)
Type: biochemical
Settings: for Km: AmpC substrate

Sequence of AmpC β-lactamase (P00811 20-377): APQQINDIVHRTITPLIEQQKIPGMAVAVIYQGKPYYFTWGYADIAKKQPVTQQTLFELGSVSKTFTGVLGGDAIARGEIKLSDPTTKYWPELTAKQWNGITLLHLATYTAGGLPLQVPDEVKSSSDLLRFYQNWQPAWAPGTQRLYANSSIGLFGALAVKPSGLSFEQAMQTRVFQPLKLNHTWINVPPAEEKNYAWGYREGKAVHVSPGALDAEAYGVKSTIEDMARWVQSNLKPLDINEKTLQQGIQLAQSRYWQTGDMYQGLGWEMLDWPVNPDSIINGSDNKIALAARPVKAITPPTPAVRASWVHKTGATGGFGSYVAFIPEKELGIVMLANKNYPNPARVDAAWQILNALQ

Row | Compound | Km [µM] | Ki (Fig. 1 legend, crystallised inhibitors) [nM]
1 | O=C(Cc1cccs1)N[C@@H]1C(=O)N2C(C(=O)O)=C(CSc3ccc([N+](=O)[O-])c(C(=O)O)c3)CS[C@H]12 [CENTA] | 27.6 | 
2 | O=S(=O)(Nc1ccc(F)c2cnccc12)c1cc(Cl)cc(Cl)c1O [Z6615020275] |  | 2000
3 | O=C(Cc1cccs1)N[C@@H]1C(=O)N2C(C(=O)O)=C(/C=C/c3ccc([N+](=O)[O-])cc3[N+](=O)[O-])CS[C@H]12 [nitrocefin] | 180 | 
